# Molecular target: T1, wild-type K-Ras protein (Homo sapiens, UniProt P01116)
# T1 construct: expressed in transfected cells; host or cells: HeLa cells, transient transfection
# Assay: Degradation (knockdown) of forcibly expressed wild-type K-Ras protein in HeLa cells, Western blot analysis
# Format: cell-based
# Method: A plasmid expressing the wild-type K-Ras protein (K-Ras-WT) was prepared, as in Reference Example 1.
# As in Reference Example 1, the plasmid was introduced into HeLa cells to transiently overexpress the wild-type K-Ras protein (specifically, a fusion protein of the wild-type K-Ras protein and GFP through a HA tag) or a DsRed protein for comparison in the cells. HeLa cells into which the plasmid had been introduced were seeded in a 24-well plate at a cell density of 4×10^4 cells/well, and then cultured under conditions of 37° C. and 5 vol % CO2 for 40 hours.
# Culture was performed for 40 hours after introduction of the plasmid, and then TUS-007 was added to HeLa cells as follows. As a medium, a serum-free medium (37° C.) in which 1 mass % L-glutamine solution (Sigma-Aldrich) was added to D-MEM (high D-glucose, phenol red, sodium pyruvate (Wako Pure Chemical Industries, Ltd.)) was used. […]
# After electrophoresis, proteins were transferred to a PVDF membrane (Immobion™-P, Millipore) under conditions of 100 V and 120 minutes using a tank-type blotting device and a transfer buffer (25 mM Tris-HCl, 195 mM glycine, 0.01% SDS, 15% methanol). […] Subsequently, the membrane was treated with a chemiluminescence reagent Immobilon™ Western (Millipore), and then chemiluminescence was detected using a lumino image analyzer LAS-3000 (FUJIFILM Corporation). […]
# T1 sequence (P01116 1-188 isoform P01116-2): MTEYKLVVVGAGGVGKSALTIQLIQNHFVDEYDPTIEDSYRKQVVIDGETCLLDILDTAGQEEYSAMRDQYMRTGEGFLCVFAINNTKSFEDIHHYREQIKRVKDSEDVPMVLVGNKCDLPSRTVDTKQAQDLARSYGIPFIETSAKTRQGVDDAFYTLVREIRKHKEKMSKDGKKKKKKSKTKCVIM
compound,measurement,setting,value
CC[C@@H](C)[C@H](NC(=O)CCCCCCNC(=O)[C@H](CC(C)C)NC(=O)CNC(=O)c1cc(Cl)ccc1Cl)C(=O)Nc1ccc2[nH]c(Cc3c[nH]c4ccccc34)nc2c1 [TUS-007],amount of wild-type K-Ras protein,"24 hours after addition, relative to control (DMSO)",the amount of the wild-type K-Ras protein was reduced
same,amount of wild-type K-Ras protein when MLN2238 is added together,both TUS-007 and MLN2238 added,the amount of the wild-type K-Ras protein was increased as compared with the amount of the control (DMSO)

# From patent US20190369111A1, “MOLECULAR KINETICS EVALUATION METHOD AND SCREENING METHOD” (Tokyo University of Science Foundation, priority 2016, published 2019)
